According to patent publication US20100015635A1, “IMMOBILISATION OF FLUORESCENT PROTEINS” (priority 2006, published 2010):

Legend:
[1] = Control: emission of mixture of BSA-Atto390 and Hc-Cy5 during deoxygenation, excitation 280 nm; conditions: solution mixture
Text: To rule out that the changes in dye fluorescence might be due to a specific quenching by molecular oxygen, a mixture of Atto390 labelled bovine serum albumin (BSA) and Hc-Cy5 was deoxygenated while recording emission spectra from 300 to 750 nm upon excitation at 280 nm. The applied labels emit at different wavelengths, therefore permitting the simultaneous observation of each individual conjugate. […] With the labels exchanged, the reverse was observed. From this it can be concluded that the variations in label fluorescence correlate with the binding of O2 to the labelled hemocyanin. […] Similar observations were made for Ty.

[2] = Sol-gel controls: O2 dependence of non-binding species, leaking, storage stability; assay type: physicochemical; conditions: individually encapsulated in a sol-gel matrix
Text: [19]. The buffer solution surrounding the quartz slides was checked for leaking of the labeled protein out of the matrix. […] As already reported, the mechanical strength of silica gels often prevents the leaking of biomolecules. 3) Tryptophan fluorescence has been used to study stability and flexibility of proteins upon entrapment.

[3] = Switching ratio of Trp/label emission of tyrosinase (Ty) on deoxygenation, excitation 280 nm; design: species or system Streptomyces antibioticus; conditions: emission of Trp or of N-terminal dye label on Ty, excitation at 280 nm
Protocol: To illustrate this Example, Ty from the soil bacterium Streptomyces antibiotius was selected.
S.c. Ty contains 12 Trp residues on a total of 271 amino-acids (4.4% against ˜1% on average), which cluster around the type-3 centre. […] In an air-saturated solution (0.26 mM O2), practically all protein occurs in the oxygenated form (see FIG. 2A). Upon complete deoxygenation, the Trp fluorescence increases by a factor of 2.7 while the shape and position of the emission band remain unchanged. For the C.a. Hc samples, this factor, further referred to as the switching ratio SR (=Fred/Foxy), amounts to 2.2.
Both Hc and Ty were labelled at their N-terminus with each of the five dyes. […] The peak around […] is a second-order artefact. In a solution containing dye and protein separately (not linked) this peak (280 nm) was missing. The second order artefact is due to higher orders of light being allowed through the monochromator. The artefact can be excluded by placing a cut-off filter in the detection path that allows through light only beyond a certain wavelength (for example […]).
In all cases, an increase in label emission was observed after deoxygenating the sample (FIG. 4A). […] The Cy3 fluorescence is specific for the labelled protein, while the Trp emission derives mainly (>95%) from unlabelled Hc. […]

Molecule: BSA-Atto390: Atto390 labelled bovine serum albumin, control
- dependence of label emission on [O2] [1]: does not

Molecule: bovine serum albumin labeled with Cy5: BSA labeled with Cy5 encapsulated in a sol-gel matrix, control
- dependence of fluorescence intensity on [O2] [2]: neither unreacted Cy5 nor bovine serum albumin labeled with Cy5, both individually encapsulated in a sol-gel matrix, depended on the [O2]

B1: Ty: tyrosinase from the soil bacterium Streptomyces antibiotius (protein, UniProt P07524 2-273, looked up)
Tyrosinase: TVRKNQASLTAEEKRRFVAALLELKRTGRYDAFVTTHNAFILGDTDNGERTGHRSPSFLPWHRRFLLEFERALQSVDASVALPYWDWSADRSTRSSLWAPDFLGGTGRSRDGQVMDGPFAASAGNWPINVRVDGRTFLRRALGAGVSELPTRAEVDSVLAMATYDMAPWNSGSDGFRNHLEGWRGVNLHNRVHVWVGGQMATGVSPNDPVFWLHHAYIDKLWAEWQRRHPSSPYLPGGGTPNVVDLNETMKPWNDTTPAALLDHTRHYTFDV
- SR Tyr (switching ratio Fred/Foxy) [3]: 2.7
